Assay results reported in ChEMBL document CHEMBL5316338, “Discovery of Novel PTP1B Inhibitors with Once-Weekly Therapeutic Potential for Type 2 Diabetes: Design, Synthesis, and In Vitro and In Vivo Investigations of BimBH3 Peptide Analogues” (J Med Chem, 2023).
Numbered stars: 1 amine (or outer) side, 2 acyl side, 3 side chain; on linkers, the order of the positions; unused ones are H or OH. Square brackets hold non-standard residues; d marks the D form. Peptide text beside a SMILES is read from it. * marks the point of attachment. ξ: configuration not given here. C18 diacid = O=C(O)CCCCCCCCCCCCCCCCC(=O)*; γGlu = O=C(O)[C@H](CCC(=O)[*:2])N[*:1]; C14 diacid = O=C(O)CCCCCCCCCCCCC(=O)*; Adipoyl = O=C(CCCCC(=O)[*:2])[*:1]; HOOC(CH2)6CO = O=C(O)CCCCCCC(=O)*; Malonyl = O=C(CC(=O)[*:2])[*:1]; ξR = N=C(N)NCCCC(N)C(=O)O; Heptanoyl = CCCCCCC(=O)*; Octanoyl = CCCCCCCC(=O)*; Aun = NCCCCCCCCCCC(=O)O; Hexanoyl = CCCCCC(=O)*; Pentanoyl = CCCCC(=O)*; AEEA = NCCOCCOCC(=O)O

biological target: T1, Tyrosine-protein phosphatase non-receptor type 1 (Homo sapiens) (UniProt P18031); assay: Inhibition of N-terminal His tagged recombinant human PTP1B expressed in Escherichia coli using pNPP as substrate assessed as substrate hydrolysis at 40 umol/L relative to control; settings: dose 40.0 µmol/L
T1 sequence (whole entry): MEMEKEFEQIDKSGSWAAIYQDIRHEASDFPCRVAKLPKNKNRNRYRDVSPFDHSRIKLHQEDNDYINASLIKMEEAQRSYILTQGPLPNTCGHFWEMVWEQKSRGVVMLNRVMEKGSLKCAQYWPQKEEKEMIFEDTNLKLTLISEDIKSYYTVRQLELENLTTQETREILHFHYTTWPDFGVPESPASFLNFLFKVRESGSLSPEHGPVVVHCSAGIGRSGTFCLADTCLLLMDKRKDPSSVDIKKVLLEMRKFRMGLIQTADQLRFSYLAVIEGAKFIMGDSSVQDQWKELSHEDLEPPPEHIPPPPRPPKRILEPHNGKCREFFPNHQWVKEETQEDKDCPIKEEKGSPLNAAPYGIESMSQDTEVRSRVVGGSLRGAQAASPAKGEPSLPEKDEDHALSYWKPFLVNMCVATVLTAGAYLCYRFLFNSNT

inhibition, < 50%:
CCCCCCCC(=O)N[C@H](C(=O)N[C@@H](C)C(=O)N[C@@H](CCC(N)=O)C(=O)N[C@@H](CCC(=O)O)C(=O)N[C@@H](CC(C)C)C(=O)N[C@@H](CCCNC(=N)N)C(=O)N[C@@H](CCCNC(=N)N)C(=O)N[C@H](C(=O)NCC(=O)N[C@@H](CC(=O)O)C(=O)N[C@@H](CCC(=O)O)C(=O)N[C@@H](Cc1ccccc1)C(=O)O)[C@@H](C)CC)[C@@H](C)CC (Octanoyl-IAQELRRIGDEF-OH), CCCCC(=O)N[C@H](C(=O)N[C@@H](C)C(=O)N[C@@H](CCC(N)=O)C(=O)N[C@@H](CCC(=O)O)C(=O)N[C@@H](CC(C)C)C(=O)N[C@@H](CCCNC(=N)N)C(=O)N[C@@H](CCCNC(=N)N)C(=O)N[C@H](C(=O)NCC(=O)N[C@@H](CC(=O)O)C(=O)N[C@@H](CCC(=O)O)C(=O)N[C@@H](Cc1ccccc1)C(=O)O)[C@@H](C)CC)[C@@H](C)CC (Pentanoyl-IAQELRRIGDEF-OH), CCCCCC(=O)N[C@H](C(=O)N[C@@H](C)C(=O)N[C@@H](CCC(N)=O)C(=O)N[C@@H](CCC(=O)O)C(=O)N[C@@H](CC(C)C)C(=O)N[C@@H](CCCNC(=N)N)C(=O)N[C@@H](CCCNC(=N)N)C(=O)N[C@H](C(=O)NCC(=O)N[C@@H](CC(=O)O)C(=O)N[C@@H](CCC(=O)O)C(=O)N[C@@H](Cc1ccccc1)C(=O)O)[C@@H](C)CC)[C@@H](C)CC (Hexanoyl-IAQELRRIGDEF-OH), CC[C@H](C)[C@H](NC(=O)CCCCCCCCCCCCC(=O)O)C(=O)N[C@@H](C)C(=O)N[C@@H](CCC(N)=O)C(=O)N[C@@H](CCC(=O)O)C(=O)N[C@@H](CC(C)C)C(=O)N[C@@H](CCCNC(=N)N)C(=O)NC(CCCNC(=N)N)C(=O)N[C@H](C(=O)NCC(=O)N[C@@H](CC(=O)O)C(=O)N[C@@H](CCC(=O)O)C(=O)N[C@@H](Cc1ccccc1)C(=O)O)[C@@H](C)CC (stereo not given in full) ({C14 diacid}-IAQELR[ξR]IGDEF-OH), CC[C@H](C)[C@H](NC(=O)CCCCC(=O)O)C(=O)N[C@@H](C)C(=O)N[C@@H](CCC(N)=O)C(=O)N[C@@H](CCC(=O)O)C(=O)N[C@@H](CC(C)C)C(=O)N[C@@H](CCCNC(=N)N)C(=O)N[C@@H](CCCNC(=N)N)C(=O)N[C@H](C(=O)NCC(=O)N[C@@H](CC(=O)O)C(=O)N[C@@H](CCC(=O)O)C(=O)N[C@@H](Cc1ccccc1)C(=O)O)[C@@H](C)CC (Adipoyl-IAQELRRIGDEF-OH), CC[C@H](C)[C@H](NC(=O)CCCCCCCCCCN)C(=O)N[C@@H](C)C(=O)N[C@@H](CCC(N)=O)C(=O)N[C@@H](CCC(=O)O)C(=O)N[C@@H](CC(C)C)C(=O)N[C@@H](CCCNC(=N)N)C(=O)N[C@@H](CCCNC(=N)N)C(=O)N[C@H](C(=O)NCC(=O)N[C@@H](CC(=O)O)C(=O)N[C@@H](CCC(=O)O)C(=O)N[C@@H](Cc1ccccc1)C(=O)O)[C@@H](C)CC (H-[Aun]IAQELRRIGDEF-OH), CCCCCCC(=O)N[C@H](C(=O)N[C@@H](C)C(=O)N[C@@H](CCC(N)=O)C(=O)N[C@@H](CCC(=O)O)C(=O)N[C@@H](CC(C)C)C(=O)N[C@@H](CCCNC(=N)N)C(=O)N[C@@H](CCCNC(=N)N)C(=O)N[C@H](C(=O)NCC(=O)N[C@@H](CC(=O)O)C(=O)N[C@@H](CCC(=O)O)C(=O)N[C@@H](Cc1ccccc1)C(=O)O)[C@@H](C)CC)[C@@H](C)CC (Heptanoyl-IAQELRRIGDEF-OH), CC[C@H](C)[C@H](NC(=O)CC(=O)O)C(=O)N[C@@H](C)C(=O)N[C@@H](CCC(N)=O)C(=O)N[C@@H](CCC(=O)O)C(=O)N[C@@H](CC(C)C)C(=O)N[C@@H](CCCNC(=N)N)C(=O)N[C@@H](CCCNC(=N)N)C(=O)N[C@H](C(=O)NCC(=O)N[C@@H](CC(=O)O)C(=O)N[C@@H](CCC(=O)O)C(=O)N[C@@H](Cc1ccccc1)C(=O)O)[C@@H](C)CC (Malonyl-IAQELRRIGDEF-OH), CC[C@H](C)[C@H](NC(=O)COCCOCCNC(=O)COCCOCCNC(=O)CC[C@H](NC(=O)CCCCCCCCCCCCCCCCC(=O)O)C(=O)O)C(=O)N[C@@H](C)C(=O)N[C@@H](CCC(N)=O)C(=O)N[C@@H](CCC(=O)O)C(=O)N[C@@H](CC(C)C)C(=O)N[C@@H](CCCNC(=N)N)C(=O)N[C@@H](CCCNC(=N)N)C(=O)N[C@H](C(=O)NCC(=O)N[C@@H](CC(=O)O)C(=O)N[C@@H](CCC(=O)O)C(=O)N[C@@H](Cc1ccccc1)C(=O)O)[C@@H](C)CC ({C18 diacid-γGlu-AEEA-AEEA}-IAQELRRIGDEF-OH), CC[C@H](C)[C@H](NC(=O)CCCCCCC(=O)O)C(=O)N[C@@H](C)C(=O)N[C@@H](CCC(N)=O)C(=O)N[C@@H](CCC(=O)O)C(=O)N[C@@H](CC(C)C)C(=O)N[C@@H](CCCNC(=N)N)C(=O)N[C@@H](CCCNC(=N)N)C(=O)N[C@H](C(=O)NCC(=O)N[C@@H](CC(=O)O)C(=O)N[C@@H](CCC(=O)O)C(=O)N[C@@H](Cc1ccccc1)C(=O)O)[C@@H](C)CC ({HOOC(CH2)6CO}-IAQELRRIGDEF-OH)
